# Measurements: publication PMC3814616, “BRAF inhibitors suppress apoptosis through off-target inhibition of JNK signaling” (eLife, 2013)
# Read-outs that look alike come from different tables or passages of the source.
# Experiments:
# [1] = biological target: BRK (PTK6) (Homo sapiens, UniProt Q13882); assay: Quantitative competitive binding assay (KINOMEscan); conditions: for IC50: estimated Kd, averaged pointwise estimates, transformed Hill equation, read-out: Calculated estimate of IC50; for remaining binding at 0.05 µM: read-out: Percent control (50 nM); for remaining binding at 0.2 µM: read-out: Percent control (200 nM); for remaining binding at 1 µM: read-out: Percent control (1000 nM); for remaining binding at 10 µM: read-out: Percent control (10 μM)
# [2] = biological target: T1, FGR (Homo sapiens, UniProt P09769); assay: as above; conditions: for IC50: estimated Kd, averaged pointwise estimates, transformed Hill equation, read-out: Calculated estimate of IC50; for remaining binding at 0.05 µM: read-out: Percent control (50 nM); for remaining binding at 0.2 µM: read-out: Percent control (200 nM); for remaining binding at 1 µM: read-out: Percent control (1000 nM); for remaining binding at 10 µM: read-out: Percent control (10 μM)
# T1 construct: purchased KINOMEscan (DiscoveRx), San Diego, CA
# [3] = biological target: T2, MAP3K3 (Homo sapiens, UniProt Q99759); assay: as above; conditions: for remaining binding at 0.05 µM: read-out: Percent control (50 nM); for remaining binding at 0.2 µM: read-out: Percent control (200 nM); for remaining binding at 1 µM: read-out: Percent control (1000 nM); for remaining binding at 10 µM: read-out: Percent control (10 μM)
# T2 construct: purchased KINOMEscan (DiscoveRx), San Diego, CA
# [4] = biological target: T3, MAP4K2 (Homo sapiens, UniProt Q12851); assay: as above; conditions: for remaining binding at 0.05 µM: read-out: Percent control (50 nM); for remaining binding at 0.2 µM: read-out: Percent control (200 nM); for remaining binding at 1 µM: read-out: Percent control (1000 nM); for remaining binding at 10 µM: read-out: Percent control (10 μM)
# T3 construct: purchased KINOMEscan (DiscoveRx), San Diego, CA
# T3 sequence (Q12851 1-820): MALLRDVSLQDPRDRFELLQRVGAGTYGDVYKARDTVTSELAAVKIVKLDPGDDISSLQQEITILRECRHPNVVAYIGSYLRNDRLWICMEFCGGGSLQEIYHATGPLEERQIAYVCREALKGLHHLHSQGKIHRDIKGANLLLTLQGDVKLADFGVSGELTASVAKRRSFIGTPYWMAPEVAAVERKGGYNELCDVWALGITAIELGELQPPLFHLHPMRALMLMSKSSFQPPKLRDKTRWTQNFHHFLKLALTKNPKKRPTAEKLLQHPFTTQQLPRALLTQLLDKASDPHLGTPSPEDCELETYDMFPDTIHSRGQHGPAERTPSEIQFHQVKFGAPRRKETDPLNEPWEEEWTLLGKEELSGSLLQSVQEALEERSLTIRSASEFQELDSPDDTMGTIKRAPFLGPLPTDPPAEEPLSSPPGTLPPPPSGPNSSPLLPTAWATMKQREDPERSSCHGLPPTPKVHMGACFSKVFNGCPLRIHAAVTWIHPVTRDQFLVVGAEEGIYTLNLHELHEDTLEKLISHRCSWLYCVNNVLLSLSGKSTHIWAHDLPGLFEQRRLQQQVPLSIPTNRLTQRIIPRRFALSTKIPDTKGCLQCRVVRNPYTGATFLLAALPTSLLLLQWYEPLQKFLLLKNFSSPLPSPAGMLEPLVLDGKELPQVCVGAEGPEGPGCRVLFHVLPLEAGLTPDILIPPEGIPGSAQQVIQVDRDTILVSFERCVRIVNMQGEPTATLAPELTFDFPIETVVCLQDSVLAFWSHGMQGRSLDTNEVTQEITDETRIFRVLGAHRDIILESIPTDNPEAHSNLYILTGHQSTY
# [5] = biological target: T4, MAP4K3 (Homo sapiens, UniProt Q8IVH8); assay: as above; conditions: for remaining binding at 0.05 µM: read-out: Percent control (50 nM); for remaining binding at 0.2 µM: read-out: Percent control (200 nM); for remaining binding at 1 µM: read-out: Percent control (1000 nM); for remaining binding at 10 µM: read-out: Percent control (10 μM)
# T4 construct: purchased KINOMEscan (DiscoveRx), San Diego, CA
# T4 sequence (Q8IVH8 1-894): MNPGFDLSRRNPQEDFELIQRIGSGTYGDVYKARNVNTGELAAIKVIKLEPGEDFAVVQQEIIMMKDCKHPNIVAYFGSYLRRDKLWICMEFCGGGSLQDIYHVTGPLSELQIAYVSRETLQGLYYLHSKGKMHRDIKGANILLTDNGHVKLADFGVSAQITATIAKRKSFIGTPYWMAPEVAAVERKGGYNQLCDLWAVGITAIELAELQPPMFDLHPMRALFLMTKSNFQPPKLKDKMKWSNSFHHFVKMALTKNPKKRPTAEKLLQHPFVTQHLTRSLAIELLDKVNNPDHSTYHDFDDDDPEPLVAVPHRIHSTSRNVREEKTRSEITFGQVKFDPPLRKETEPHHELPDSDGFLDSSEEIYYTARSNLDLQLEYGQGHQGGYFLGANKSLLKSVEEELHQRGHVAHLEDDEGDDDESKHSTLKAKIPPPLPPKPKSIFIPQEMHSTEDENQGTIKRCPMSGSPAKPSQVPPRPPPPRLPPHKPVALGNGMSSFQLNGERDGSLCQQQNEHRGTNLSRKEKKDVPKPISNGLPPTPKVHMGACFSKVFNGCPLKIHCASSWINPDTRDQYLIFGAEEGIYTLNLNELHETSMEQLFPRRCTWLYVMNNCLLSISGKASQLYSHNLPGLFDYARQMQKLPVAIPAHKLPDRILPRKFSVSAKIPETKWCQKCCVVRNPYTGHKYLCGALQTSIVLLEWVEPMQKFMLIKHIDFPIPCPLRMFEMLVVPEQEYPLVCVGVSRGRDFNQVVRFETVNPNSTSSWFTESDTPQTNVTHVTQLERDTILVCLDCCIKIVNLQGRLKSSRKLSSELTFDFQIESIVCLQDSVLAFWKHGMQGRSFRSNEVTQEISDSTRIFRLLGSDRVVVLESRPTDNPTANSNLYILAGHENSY
# [6] = biological target: T5, MLK2 (MAP3K10) (Homo sapiens, UniProt Q02779); assay: as above; conditions: for remaining binding at 0.05 µM: read-out: Percent control (50 nM); for remaining binding at 0.2 µM: read-out: Percent control (200 nM); for remaining binding at 10 µM: read-out: Percent control (10 μM)
# T5 construct: purchased KINOMEscan (DiscoveRx), San Diego, CA
# [7] = biological target: T6, PAK1 (Homo sapiens, UniProt Q13153); assay: as above; conditions: for remaining binding at 0.05 µM: read-out: Percent control (50 nM); for remaining binding at 0.2 µM: read-out: Percent control (200 nM); for remaining binding at 1 µM: read-out: Percent control (1000 nM); for remaining binding at 10 µM: read-out: Percent control (10 μM)
# T6 construct: purchased KINOMEscan (DiscoveRx), San Diego, CA
# [8] = biological target: T7, RIPK1 (Homo sapiens, UniProt Q13546); assay: as above; conditions: for remaining binding at 0.05 µM: read-out: Percent control (50 nM); for remaining binding at 0.2 µM: read-out: Percent control (200 nM); for remaining binding at 1 µM: read-out: Percent control (1000 nM); for remaining binding at 10 µM: read-out: Percent control (10 μM)
# T7 construct: purchased KINOMEscan (DiscoveRx), San Diego, CA
# [9] = biological target: T8, MLK1 (MAP3K9) (Homo sapiens, UniProt P80192); conditions: read-out: Published biochemical IC50, cited from earlier work
# T8 construct: purchased KINOMEscan (DiscoveRx), San Diego, CA
# [10] = system: JNK and p38 isoforms; set-up: method as in Tsai et al., 2008; Bollag et al., 2010; conditions: ref Tsai et al., 2008; Bollag et al., 2010; cited from earlier work
# T5 sequence (Q02779 whole entry): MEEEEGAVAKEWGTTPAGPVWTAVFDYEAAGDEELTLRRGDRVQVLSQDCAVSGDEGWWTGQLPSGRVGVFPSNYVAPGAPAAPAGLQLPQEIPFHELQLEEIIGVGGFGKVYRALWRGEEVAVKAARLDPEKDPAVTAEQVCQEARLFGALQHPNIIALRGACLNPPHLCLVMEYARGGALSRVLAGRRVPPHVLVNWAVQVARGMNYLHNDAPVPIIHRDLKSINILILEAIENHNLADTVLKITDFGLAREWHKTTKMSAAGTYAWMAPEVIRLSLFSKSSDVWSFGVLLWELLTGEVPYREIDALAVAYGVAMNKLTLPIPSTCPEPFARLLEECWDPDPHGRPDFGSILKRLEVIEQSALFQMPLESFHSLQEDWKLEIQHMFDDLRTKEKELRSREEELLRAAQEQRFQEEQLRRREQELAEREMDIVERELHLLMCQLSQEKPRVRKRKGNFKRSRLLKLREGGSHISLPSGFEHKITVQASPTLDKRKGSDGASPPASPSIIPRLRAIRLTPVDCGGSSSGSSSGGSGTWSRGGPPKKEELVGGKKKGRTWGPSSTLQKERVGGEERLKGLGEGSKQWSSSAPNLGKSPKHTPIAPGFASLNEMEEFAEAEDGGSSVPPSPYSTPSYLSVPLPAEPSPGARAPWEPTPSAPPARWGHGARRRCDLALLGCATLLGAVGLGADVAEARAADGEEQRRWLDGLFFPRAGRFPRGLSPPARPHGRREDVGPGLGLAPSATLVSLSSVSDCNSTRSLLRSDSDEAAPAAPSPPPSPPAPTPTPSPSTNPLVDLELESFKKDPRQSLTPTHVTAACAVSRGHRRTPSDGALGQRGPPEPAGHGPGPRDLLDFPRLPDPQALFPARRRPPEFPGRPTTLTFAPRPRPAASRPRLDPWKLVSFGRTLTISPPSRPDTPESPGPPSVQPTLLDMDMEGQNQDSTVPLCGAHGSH
# T7 sequence (Q13546 whole entry): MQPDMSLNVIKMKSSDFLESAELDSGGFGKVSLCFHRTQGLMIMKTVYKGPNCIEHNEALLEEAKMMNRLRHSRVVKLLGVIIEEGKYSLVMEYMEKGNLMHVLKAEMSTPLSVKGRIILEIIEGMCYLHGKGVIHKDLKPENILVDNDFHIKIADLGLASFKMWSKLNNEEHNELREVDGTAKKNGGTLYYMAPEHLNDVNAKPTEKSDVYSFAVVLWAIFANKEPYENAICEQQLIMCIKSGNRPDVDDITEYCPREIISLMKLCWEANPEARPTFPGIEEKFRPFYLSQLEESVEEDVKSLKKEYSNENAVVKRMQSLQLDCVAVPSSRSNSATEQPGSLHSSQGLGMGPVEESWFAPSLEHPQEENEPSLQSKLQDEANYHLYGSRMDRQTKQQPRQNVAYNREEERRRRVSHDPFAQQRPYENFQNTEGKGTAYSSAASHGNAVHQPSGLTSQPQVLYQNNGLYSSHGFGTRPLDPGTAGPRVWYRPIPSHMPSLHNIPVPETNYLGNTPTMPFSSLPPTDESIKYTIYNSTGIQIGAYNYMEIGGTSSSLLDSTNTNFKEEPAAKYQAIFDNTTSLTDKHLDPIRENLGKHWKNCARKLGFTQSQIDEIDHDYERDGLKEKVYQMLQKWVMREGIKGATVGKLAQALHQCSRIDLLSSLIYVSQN
# Chain of BRK (PTK6) (Q13882 whole entry): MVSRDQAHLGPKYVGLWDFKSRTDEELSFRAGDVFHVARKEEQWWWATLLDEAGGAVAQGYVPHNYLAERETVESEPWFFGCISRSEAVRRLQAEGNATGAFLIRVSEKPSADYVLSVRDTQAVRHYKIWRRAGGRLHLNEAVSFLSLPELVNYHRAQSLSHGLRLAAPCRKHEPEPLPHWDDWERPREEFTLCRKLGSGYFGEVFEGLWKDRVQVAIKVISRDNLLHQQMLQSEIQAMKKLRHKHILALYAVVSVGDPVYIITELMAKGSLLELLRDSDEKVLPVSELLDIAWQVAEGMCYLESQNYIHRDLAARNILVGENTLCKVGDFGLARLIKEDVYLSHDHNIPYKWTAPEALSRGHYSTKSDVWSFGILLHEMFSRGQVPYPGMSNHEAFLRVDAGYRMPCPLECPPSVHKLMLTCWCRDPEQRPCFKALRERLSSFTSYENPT
# T2 sequence (Q99759 whole entry): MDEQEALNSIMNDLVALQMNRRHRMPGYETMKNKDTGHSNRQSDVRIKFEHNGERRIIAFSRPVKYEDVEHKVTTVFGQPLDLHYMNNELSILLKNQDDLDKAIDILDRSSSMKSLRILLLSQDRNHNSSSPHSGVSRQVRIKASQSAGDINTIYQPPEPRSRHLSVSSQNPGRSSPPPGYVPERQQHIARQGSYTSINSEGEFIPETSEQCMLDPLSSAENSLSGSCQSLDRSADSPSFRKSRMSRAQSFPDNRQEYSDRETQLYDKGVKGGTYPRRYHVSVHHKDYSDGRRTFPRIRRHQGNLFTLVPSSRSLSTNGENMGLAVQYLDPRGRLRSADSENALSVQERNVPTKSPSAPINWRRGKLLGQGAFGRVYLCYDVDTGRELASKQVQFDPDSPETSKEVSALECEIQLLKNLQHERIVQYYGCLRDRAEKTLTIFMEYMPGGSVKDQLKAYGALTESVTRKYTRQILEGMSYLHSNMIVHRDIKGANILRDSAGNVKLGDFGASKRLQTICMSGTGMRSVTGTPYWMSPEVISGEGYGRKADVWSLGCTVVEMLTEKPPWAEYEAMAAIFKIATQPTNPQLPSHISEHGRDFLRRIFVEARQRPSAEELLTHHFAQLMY
# T1 sequence (P09769 whole entry): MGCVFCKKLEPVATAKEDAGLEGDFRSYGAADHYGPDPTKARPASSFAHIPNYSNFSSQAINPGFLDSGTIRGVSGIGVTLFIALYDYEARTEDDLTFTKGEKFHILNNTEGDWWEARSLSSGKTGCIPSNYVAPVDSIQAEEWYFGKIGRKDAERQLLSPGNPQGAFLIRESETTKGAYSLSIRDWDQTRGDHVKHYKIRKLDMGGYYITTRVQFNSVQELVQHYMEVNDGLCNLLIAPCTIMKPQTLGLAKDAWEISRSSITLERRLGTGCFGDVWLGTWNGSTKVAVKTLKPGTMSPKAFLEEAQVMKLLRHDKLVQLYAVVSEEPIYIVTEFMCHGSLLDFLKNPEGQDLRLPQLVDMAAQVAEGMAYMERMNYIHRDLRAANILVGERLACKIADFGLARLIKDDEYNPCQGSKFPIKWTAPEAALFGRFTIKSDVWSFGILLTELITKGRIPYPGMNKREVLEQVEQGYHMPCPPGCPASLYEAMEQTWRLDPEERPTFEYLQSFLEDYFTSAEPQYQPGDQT
# T6 sequence (Q13153 whole entry): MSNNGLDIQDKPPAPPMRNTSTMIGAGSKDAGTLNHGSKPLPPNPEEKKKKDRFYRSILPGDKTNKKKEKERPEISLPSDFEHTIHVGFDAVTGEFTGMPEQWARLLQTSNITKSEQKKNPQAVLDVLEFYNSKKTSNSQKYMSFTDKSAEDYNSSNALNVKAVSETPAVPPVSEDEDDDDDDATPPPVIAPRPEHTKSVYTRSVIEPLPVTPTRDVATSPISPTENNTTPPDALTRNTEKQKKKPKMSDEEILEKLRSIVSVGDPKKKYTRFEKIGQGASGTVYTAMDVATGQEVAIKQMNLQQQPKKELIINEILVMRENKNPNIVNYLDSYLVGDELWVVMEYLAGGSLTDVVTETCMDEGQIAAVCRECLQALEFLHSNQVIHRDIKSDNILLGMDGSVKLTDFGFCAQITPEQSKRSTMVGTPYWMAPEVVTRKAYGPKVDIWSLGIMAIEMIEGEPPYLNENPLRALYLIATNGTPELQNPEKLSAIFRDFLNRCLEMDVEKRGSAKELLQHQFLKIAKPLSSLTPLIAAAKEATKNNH
# T8 sequence (P80192 whole entry): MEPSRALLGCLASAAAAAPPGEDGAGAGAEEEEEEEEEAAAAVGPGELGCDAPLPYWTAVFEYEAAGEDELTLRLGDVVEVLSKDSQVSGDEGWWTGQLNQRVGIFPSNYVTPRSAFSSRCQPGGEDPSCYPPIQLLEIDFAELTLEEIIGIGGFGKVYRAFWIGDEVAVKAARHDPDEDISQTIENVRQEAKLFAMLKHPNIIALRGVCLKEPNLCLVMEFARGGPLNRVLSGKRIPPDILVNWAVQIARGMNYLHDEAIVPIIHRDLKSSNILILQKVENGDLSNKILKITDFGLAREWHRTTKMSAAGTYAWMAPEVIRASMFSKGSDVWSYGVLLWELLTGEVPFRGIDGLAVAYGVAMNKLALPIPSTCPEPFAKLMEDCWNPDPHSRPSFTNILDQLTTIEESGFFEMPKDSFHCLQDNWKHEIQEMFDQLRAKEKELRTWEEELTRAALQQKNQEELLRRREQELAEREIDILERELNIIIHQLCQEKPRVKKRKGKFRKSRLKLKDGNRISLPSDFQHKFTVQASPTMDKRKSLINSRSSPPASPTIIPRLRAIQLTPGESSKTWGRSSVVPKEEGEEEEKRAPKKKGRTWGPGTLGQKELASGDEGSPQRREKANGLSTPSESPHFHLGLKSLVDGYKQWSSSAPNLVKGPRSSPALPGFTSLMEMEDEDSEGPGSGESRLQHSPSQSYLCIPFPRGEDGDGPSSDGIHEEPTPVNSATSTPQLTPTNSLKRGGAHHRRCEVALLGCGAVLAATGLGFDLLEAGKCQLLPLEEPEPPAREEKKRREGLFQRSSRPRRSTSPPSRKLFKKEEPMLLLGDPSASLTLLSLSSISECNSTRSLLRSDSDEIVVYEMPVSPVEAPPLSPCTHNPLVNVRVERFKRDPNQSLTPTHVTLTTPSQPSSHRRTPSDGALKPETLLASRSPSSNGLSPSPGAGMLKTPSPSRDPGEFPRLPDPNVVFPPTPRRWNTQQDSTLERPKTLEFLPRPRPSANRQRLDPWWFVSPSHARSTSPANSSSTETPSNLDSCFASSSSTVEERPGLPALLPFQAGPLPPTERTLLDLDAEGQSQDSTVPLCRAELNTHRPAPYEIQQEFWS
Structure (SMILES),IC50 [1] [nM],remaining binding at 0.05 µM [1] [%],remaining binding at 0.2 µM [1] [%],remaining binding at 1 µM [1] [%],remaining binding at 10 µM [1] [%],IC50 [2] [nM],remaining binding at 0.05 µM [2] [%],remaining binding at 0.2 µM [2] [%],remaining binding at 1 µM [2] [%],remaining binding at 10 µM [2] [%],remaining binding at 0.05 µM [3] [%],remaining binding at 0.2 µM [3] [%],remaining binding at 1 µM [3] [%],remaining binding at 10 µM [3] [%],remaining binding at 0.05 µM [4] [%],remaining binding at 0.2 µM [4] [%],remaining binding at 1 µM [4] [%],remaining binding at 10 µM [4] [%],remaining binding at 0.05 µM [5] [%],remaining binding at 0.2 µM [5] [%],further results
CCCS(=O)(=O)Nc1ccc(F)c(C(=O)c2c[nH]c3ncc(-c4ccc(Cl)cc4)cc23)c1F [vemurafenib],68,63,28,6.9,0.35,149,65,49,13,1.6,87,97,100,94,99,82,95,46,80,90,"remaining binding at 1 µM [5]: 82%; remaining binding at 10 µM [5]: 24%; remaining binding at 0.05 µM [6]: 92%; remaining binding at 0.2 µM [6]: 96%; remaining binding at 10 µM [6]: 78%; remaining binding at 0.05 µM [7]: 99%; remaining binding at 0.2 µM [7]: 98%; remaining binding at 1 µM [7]: 91%; remaining binding at 10 µM [7]: 46%; remaining binding at 0.05 µM [8]: 92%; remaining binding at 0.2 µM [8]: 100%; remaining binding at 1 µM [8]: 99%; remaining binding at 10 µM [8]: 73%; IC50 ([9]; ref Bollag et al., 2010): > 1000 nM; direct inhibition of JNK and p38 isoforms [10]: not significantly inhibited"
CCCS(=O)(=O)Nc1ccc(F)c(C(=O)c2c[nH]c3ncc(Cl)cc23)c1F [PLX4720],30.4,47,14,2.4,0.2,153,69,38,11,2.5,94,97,98,75,98,100,99,67,100,95,"remaining binding at 1 µM [5]: 90%; remaining binding at 10 µM [5]: 56%; remaining binding at 0.05 µM [6]: 100%; remaining binding at 0.2 µM [6]: 82%; remaining binding at 1 µM ([6]; read-out: Percent control (1000 nM)): 100%; remaining binding at 10 µM [6]: 76%; remaining binding at 0.05 µM [7]: 93%; remaining binding at 0.2 µM [7]: 97%; remaining binding at 1 µM [7]: 83%; remaining binding at 10 µM [7]: 22%; remaining binding at 0.05 µM [8]: 99%; remaining binding at 0.2 µM [8]: 87%; remaining binding at 1 µM [8]: 85%; remaining binding at 10 µM [8]: 50%; IC50 ([9]; ref Tsai et al., 2008): > 5000 nM; direct inhibition of JNK and p38 isoforms [10]: not significantly inhibited"
